{"source": "patent US10189785B2", "about": "“Heterocyclic compound” (TAKEDA PHARMACEUTICAL COMPANY LIMITED, priority 2015, dated 2019)", "key": {"[1]": {"target": "T1, SPT (SPT2-expressing membrane fraction: human SPT1, human SPT2 and human ssSPTa) (Homo sapiens, UniProt O15269+O15270)", "T1 construct": "Full-length human SPT1, human SPT2 and human ssSPTa used; made in house; host or cells: FreeStyle 293 cells (pcDNA3.1 vectors, cotransfection); crude membrane fraction used", "T1 sequence (O15269 1-473)": "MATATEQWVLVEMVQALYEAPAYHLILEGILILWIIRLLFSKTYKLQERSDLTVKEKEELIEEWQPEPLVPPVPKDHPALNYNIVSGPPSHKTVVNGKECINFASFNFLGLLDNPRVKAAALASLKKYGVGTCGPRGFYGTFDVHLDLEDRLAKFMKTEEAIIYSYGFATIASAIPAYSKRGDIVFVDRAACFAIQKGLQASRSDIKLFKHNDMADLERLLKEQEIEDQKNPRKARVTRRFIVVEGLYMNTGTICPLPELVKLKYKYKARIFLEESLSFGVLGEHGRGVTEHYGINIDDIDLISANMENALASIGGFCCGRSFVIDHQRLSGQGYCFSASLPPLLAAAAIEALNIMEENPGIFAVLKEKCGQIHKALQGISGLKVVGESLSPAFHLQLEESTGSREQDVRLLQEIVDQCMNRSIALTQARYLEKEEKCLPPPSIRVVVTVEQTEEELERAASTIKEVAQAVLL", "T1 sequence (O15270 1-562)": "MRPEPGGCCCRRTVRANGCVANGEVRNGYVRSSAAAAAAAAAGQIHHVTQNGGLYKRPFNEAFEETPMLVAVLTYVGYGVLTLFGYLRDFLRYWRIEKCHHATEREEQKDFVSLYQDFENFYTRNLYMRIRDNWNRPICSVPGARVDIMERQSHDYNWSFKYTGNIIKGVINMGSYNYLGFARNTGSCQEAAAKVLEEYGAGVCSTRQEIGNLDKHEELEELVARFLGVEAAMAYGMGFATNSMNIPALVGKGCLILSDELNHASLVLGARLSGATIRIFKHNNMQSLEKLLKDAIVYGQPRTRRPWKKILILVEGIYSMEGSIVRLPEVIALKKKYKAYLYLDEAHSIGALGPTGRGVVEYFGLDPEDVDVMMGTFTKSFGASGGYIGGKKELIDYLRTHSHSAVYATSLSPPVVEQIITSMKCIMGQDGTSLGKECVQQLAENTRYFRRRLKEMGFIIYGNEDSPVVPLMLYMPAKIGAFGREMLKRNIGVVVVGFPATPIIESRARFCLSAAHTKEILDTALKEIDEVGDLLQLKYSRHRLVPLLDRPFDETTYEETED", "T1 sequence (Q969W0 1-71 partner)": "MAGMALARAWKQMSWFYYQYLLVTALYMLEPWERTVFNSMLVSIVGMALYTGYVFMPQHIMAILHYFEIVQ", "experiment": "SPT enzyme inhibition test (Test Example 1)", "assay_type": "biochemical", "settings": "read-out: Rate of inhibition (%) at 1 μM", "description": "After culture for 3 days, the cells were recovered and frozen at −80° C. to obtain expressing cells. The frozen cells were suspended in a 50 mM Hepes buffer (pH 7.5) containing 250 mM sucrose, 5 mM ethylenediaminetetraacetic acid (EDTA), 5 mM dithiothreitol (DTT) and Complete, EDTA-free (Roche Applied Science, Penzberg, Upper Bavaria, Germany). The cells were disrupted (on ice, 20,000 rpm, 20 sec×2) using POLYTORON (Central Scientific Commerce, Inc.). After centrifugation at 2000 rpm (850×g) for 10 minutes, the supernatant was recovered. Subsequently, the supernatant was centrifuged at 40,000 rpm (186,010×g) for 60 minutes, and the supernatant was discarded. The pellets were suspended in a 50 mM Hepes buffer (pH 7.5) containing 5 mM EDTA, 5 mM DTT and Complete, EDTA-free, passed through a 40-μm cell strainer and stored at −80° C. The resultant was used as a SPT2-expressing membrane fraction. The protein concentration was determined using CBB Protein Assay with bovine serum albumin used as standards.\n5 μL of each test compound was mixed with 10 μL of the 100 μg/mL SPT2-expressing membrane fraction using an assay buffer (100 mM Hepes (pH 8.0) containing 2.5 mM EDTA, 5 mM DTT and 0.01% fatty acid-free bovine serum albumin), and the mixture was left standing at room temperature for 60 minutes. Subsequently, 5 μL of a substrate solution containing 2 mM L-serine and 20 μM palmitoyl CoA was added thereto, and an enzyme reaction was carried out in a 384-well plate using 20 μL in total of the reaction system. After reaction at room temperature for 15 minutes, the reaction was terminated by the addition of 20 μL of a 2% aqueous formic acid solution. Subsequently, 40 μL of acetonitrile containing 600 nM C17-sphinganine (Avanti Polar Lipids, Inc., Alabaster, Ala., U.S.) was added thereto as an internal standard. The reaction sample was subjected to on-line solid-layer extraction using RapidFire 300 (Agilent Technologies Inc., Santa Clara, Calif., U.S.). […] Mass chromatograms were obtained using Analyst software (version 1.5.0, AB SCIEX). Their mass chromatogram areas were respectively calculated, and the rate of inhibition (%) by the test compound was calculated using an area ratio (the value of the reaction product was divided by the value of the internal standard)."}, "[2]": {"test_system": "lung adenocarcinoma cell line HCC4006", "experiment": "HCC4006 cell growth inhibition test (Test Example 2)", "assay_type": "cell-based", "settings": "Homo sapiens, 120 h; 1 μM test compound; HCC4006 cells, culture for 5 days, CellTiter-Glo; read-out: Rate of inhibition (%) at 1 μM", "description": "A lung adenocarcinoma cell line HCC4006 (ATCC) was cultured using an RPMI-1640 medium (Wako Pure Chemical Industries, Ltd.) containing 10% fetal bovine serum and penicillin/streptomycin. 250 cells per well were inoculated into 40 μL of a medium in a 384-well culture plate. On the next day, 10 μL of each test compound was added to the cells. After culture for 5 days, the medium was discarded, and 30 μL of CellTiter-Glo Luminescent Cell Viability Assay solution (Promega Corp., Fitchburg, Wis., U.S.) was added to each well. Light emission signals were measured using EnVision (PerkinElmer, Inc., Waltham, Mass., U.S.).\nThe rate of inhibition (%) by the test compound was calculated according to the following expression: Rate of inhibition (%)=(1−(Count of the test compound−Blank)/(Control−Blank))×100\nIn the above expression, a count under compound non-addition conditions was indicated as a control, and a count under cell-free conditions was indicated as a blank."}}, "data": [{"smiles": "COc1ccc(C(=O)N2CC[C@@H](NC(=O)c3ccccc3OC(F)(F)F)[C@@H](N3CCCCC3)C2)cc1OC", "note": "(relative stereo) [Example 55B, N-(cis-1′-(3,4-Dimethoxybenzoyl)-1,3′-bipiperidin-4′-yl)-2-(trifluoromethoxy)benzamide]", "values": [{"measurement": "inhibition at 1 µM", "setting": "[1]", "result": 95, "unit": "%"}]}, {"smiles": "COc1cc(C(=O)N2CC[C@@H](NC(=O)c3ccccc3OC(F)(F)F)[C@H](N3CCCCC3)C2)cnc1OC", "note": "(relative stereo) [Example 253B, N-(trans-1′-((5,6-Dimethoxypyridin-3-yl)carbonyl)-1,3′-bipiperidin-4′-yl)-2-(trifluoromethoxy)benzamide]", "values": [{"measurement": "inhibition at 1 µM", "setting": "[1]", "result": 97, "unit": "%"}]}, {"smiles": "COc1ccc(C(=O)N2CC[C@@H](NC(=O)c3ccccc3Cl)[C@H](c3sccc3C)C2)cc1OC", "note": "(relative stereo) [Example 270B, 2-chloro-N-(trans-1-(3,4-dimethoxybenzoyl)-3-(3-methyl-2-thienyl)piperidin-4-yl)benzamide]", "values": [{"measurement": "inhibition at 1 µM", "setting": "[1]", "result": 89, "unit": "%"}]}, {"smiles": "COc1cc(C(=O)N2CC[C@@H](NC(=O)c3ccccc3OC(F)(F)F)[C@H](n3cccn3)C2)cnc1OC", "note": "(relative stereo) [Example 276B, N-(trans-1-((5,6-dimethoxypyridin-3-yl)carbonyl)-3-(1H-pyrazol-1-yl)piperidin-4-yl)-2-(trifluoromethoxy)benzamide]", "values": [{"measurement": "inhibition at 1 µM", "setting": "[1]", "result": 82, "unit": "%"}]}, {"smiles": "COc1ccc(C(=O)N2CCC(NC(=O)c3ccccc3Cl)c3nn(C)cc32)cc1OC", "note": "(stereo not shown) [Example 1A, 2-Chloro-N-(4-(3,4-dimethoxybenzoyl)-2-methyl-4,5,6,7-tetrahydro-2H-pyrazolo[4,3-b]pyridin-7-yl)benzamide]", "values": [{"measurement": "inhibition at 1 µM", "setting": "[1]", "result": 91, "unit": "%"}]}, {"smiles": "COc1ccc(C(=O)N2CCC(NC(=O)c3ccccc3Cl)c3c2cnn3C)cc1OC", "note": "(stereo not shown) [Example 2A, 2-Chloro-N-(4-(3,4-dimethoxybenzoyl)-1-methyl-4,5,6,7-tetrahydro-1H-pyrazolo[4,3-b]pyridin-7-yl)benzamide]", "values": [{"measurement": "inhibition at 1 µM", "setting": "[2]", "result": 36, "unit": "%"}]}, {"smiles": "COc1ccc(C(=O)N2CC[C@@H](NC(=O)c3ccccc3Cl)[C@@H](c3ccccc3)C2)cc1OC", "note": "[Example 2B, 2-chloro-N-((3S,4R)-1-(3,4-dimethoxybenzoyl)-3-phenylpiperidin-4-yl)benzamide]", "values": [{"measurement": "inhibition at 1 µM", "setting": "[2]", "result": 55, "unit": "%"}]}, {"smiles": "COc1ccc(C(=O)N2CC[C@@H](NC(=O)c3ccccc3Cl)[C@H](c3ccccc3)C2)cc1OC", "note": "[Example 3B, 2-chloro-N-((3R,4R)-1-(3,4-dimethoxybenzoyl)-3-phenylpiperidin-4-yl)benzamide]", "values": [{"measurement": "inhibition at 1 µM", "setting": "[2]", "result": 44, "unit": "%"}]}, {"smiles": "COc1ccc(C(=O)N2CCC(NC(=O)c3ccccc3Cl)c3noc(C)c32)cc1OC", "note": "(stereo not shown) [Example 17A, 2-Chloro-N-[4-(3,4-dimethoxybenzoyl)-3-methyl-4,5,6,7-tetrahydro[1,2]oxazolo[4,3-b]pyridin-7-yl]benzamide]", "values": [{"measurement": "inhibition at 1 µM", "setting": "[1]", "result": 84, "unit": "%"}]}, {"smiles": "COc1ccc(C(=O)N2CCC(NC(=O)c3ccccc3Cl)c3nscc32)cc1OC", "note": "(stereo not shown) [Example 30A, 2-Chloro-N-[4-(3,4-dimethoxybenzoyl)-4,5,6,7-tetrahydro[1,2]thiazolo[4,3-b]pyridin-7-yl]benzamide]", "values": [{"measurement": "inhibition at 1 µM", "setting": "[1]", "result": 93, "unit": "%"}]}, {"smiles": "COc1ccc(C(=O)N2CCC(NC(=O)c3ccccc3Cl)c3c2cnn3C(C)C)cc1OC", "note": "(stereo not shown) [Example 36A, 2-Chloro-N-(4-(3,4-dimethoxybenzoyl)-1-isopropyl-4,5,6,7-tetrahydro-1H-pyrazolo[4,3-b]pyridin-7-yl)benzamide]", "values": [{"measurement": "inhibition at 1 µM", "setting": "[2]", "result": 47, "unit": "%"}]}, {"smiles": "COc1ccc(C(=O)N2CCC(NC(=O)c3sccc3Cl)c3c2cnn3C)cc1OC", "note": "(stereo not shown) [Example 64A, 3-chloro-N-(4-(3,4-dimethoxybenzoyl)-1-methyl-4,5,6,7-tetrahydro-1H-pyrazolo[4,3-b]pyridin-7-yl)thiophene-2-carboxamide]", "values": [{"measurement": "inhibition at 1 µM", "setting": "[1]", "result": 82, "unit": "%"}]}, {"smiles": "COc1cc(C(=O)N2CC[C@@H](NC(=O)c3ncccc3C(F)(F)F)[C@@H](c3ccccc3)C2)n(C)n1", "note": "[Example 72B, N-((3S,4R)-1-((3-methoxy-1-methyl-1H-pyrazol-5-yl)carbonyl)-3-phenylpiperidin-4-yl)-3-(trifluoromethyl)pyridine-2-carboxamide]", "values": [{"measurement": "inhibition at 1 µM", "setting": "[1]", "result": 94, "unit": "%"}]}, {"smiles": "COc1ccc(C(=O)N2CCC(NC(=O)c3cnccc3C(F)(F)F)c3c2cnn3C)cc1OC", "note": "(stereo not shown) [Example 91A, N-(4-(3,4-dimethoxybenzoyl)-1-methyl-4,5,6,7-tetrahydro-1H-pyrazolo[4,3-b]pyridin-7-yl)-4-(trifluoromethyl)nicotinamide]", "values": [{"measurement": "inhibition at 1 µM", "setting": "[1]", "result": 94, "unit": "%"}]}, {"smiles": "COc1ccc(C(=O)N2CCC(NC(=O)c3cccnc3C(F)(F)F)c3c2cnn3C)cc1OC", "note": "(stereo not shown) [Example 103A, N-(4-(3,4-dimethoxybenzoyl)-1-methyl-4,5,6,7-tetrahydro-1H-pyrazolo[4,3-b]pyridin-7-yl)-2-(trifluoromethyl)nicotinamide]", "values": [{"measurement": "inhibition at 1 µM", "setting": "[1]", "result": 95, "unit": "%"}]}, {"smiles": "COc1ccc(C(=O)N2CCC(NC(=O)c3ccccc3Cl)c3c(C)nsc32)cc1OC", "note": "(stereo not shown) [Example 117A, 2-Chloro-N-(7-(3,4-dimethoxybenzoyl)-3-methyl-4,5,6,7-tetrahydro[1,2]thiazolo[5,4-b]pyridin-4-yl)benzamide]", "values": [{"measurement": "inhibition at 1 µM", "setting": "[1]", "result": 84, "unit": "%"}]}, {"smiles": "COc1cc(C(=O)N2CC[C@@H](NC(=O)c3ccnn3C)[C@@H](c3ccccc3)C2)cnc1OC", "note": "[Example 144B, N-((3S,4R)-1-((5,6-dimethoxypyridin-3-yl)carbonyl)-3-phenylpiperidin-4-yl)-1-methyl-1H-pyrazole-5-carboxamide]", "values": [{"measurement": "inhibition at 1 µM", "setting": "[1]", "result": 98, "unit": "%"}]}, {"smiles": "COc1ccc(C(=O)N2CCC(NC(=O)c3ccccc3Cl)c3c(C)nn(C)c32)cc1OC", "note": "(stereo not shown) [Example 172A, 2-Chloro-N-(7-(3,4-dimethoxybenzoyl)-1,3-dimethyl-4,5,6,7-tetrahydro-1H-pyrazolo[3,4-b]pyridin-4-yl)benzamide]", "values": [{"measurement": "inhibition at 1 µM", "setting": "[1]", "result": 93, "unit": "%"}]}, {"smiles": "COc1ccc(C(=O)N2CCC(NC(=O)c3ccccc3Cl)c3ccc(Cl)nc32)cc1OC", "note": "(stereo not shown) [Example 217A, 2-Chloro-N-(7-chloro-1-(3,4-dimethoxybenzoyl)-1,2,3,4-tetrahydro-1,8-naphthyridin-4-yl)benzamide]", "values": [{"measurement": "inhibition at 1 µM", "setting": "[1]", "result": 102, "unit": "%"}]}]}
